# Source: patent publication US5004758A, “Water soluble camptothecin analogs useful for inhibiting the growth of animal tumor cells” (priority 1988, dated 1991)
# Where a name gives a salt, the structure may show the parent alone. Read-outs that look alike come from different tables or passages of the source.
# Legend:
# L1210 leukemia cells = assay: cells; assay type: cell-based, mouse; settings: Mus musculus, L1210, read-out: In Vitro Activity IC50
# Experimental: Cells were exposed continuously upon cloning into medium containing 0.2 percent Noble agar. After incubation at 37° C. in a CO2 incubator for 3 days, colonies were stained with viable cell specific formazan stain and, 24 hours later, were enumerated by a colony counter (Biotran II, New Brunswick Scientific Co., Edison, N.J.) adjusted to identify colonies of more than 50 cells. The concentration which reduced cloning efficiency by 50 percent IC50) was determined by interpolation.
# [1] = ip-implanted L1210 leukemia in mice; settings: mouse, in vivo, ip;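 also: each mouse received 10^6 L1210 cells intraperitoneally, with drug treatment also given by the i.p. route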
# Experimental: (§1) For in vivo studies L1210 cells were implanted i.p. (10^6 per mouse)
# (§2) and drugs were administered i.p. on Days 1 and 5. Increase in lifespan
# (§3) (ILS) was based on median survival time of groups of 6 mice treated at th
# maximally tolerated dose of the drugs.
# ip L1210 leukemia = assay: ip-implanted L1210 leukemia in mice;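 also: each mouse received 10^6 L1210 cells intraperitoneally, with drug treatment also given by the i.p. route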; settings: ip L1210 (10^6 cells); drug i.p. Days 1 and 5 at maximally tolerated dose
# Experimental: as §1, §2, §3
# maximally tolerated dose of the drugs.
# ip P388 leukemia = settings: ip
# Experimental: (§4) Increase in lifespan (ILS) is based on median survival time of groups of 6 mice. Net tumor cell kill (NCK) is calculated from median survival time by standard methods, since survival time is a linear function of the log tumor cell burden.
# Animals were implanted ip with 10^6 cells. Increase in lifespan (ILS) is based on median survival time of groups of 6 mice relative to untreated controls. Long-term survivors were tumor-free on Day 45.
# Tumors used in these studies--P388 leukemia and its doxorbicin--and mitoxanrone-resistant sublines, L1210 leukemia, B16 melanoma, B16 melanoma/F10 subline, M5076 sarcoma and colon carcinoma 26--are maintained by serial transplantation in syngeneic strains of mice. For the leukemias, these tumors are maintained in DBA/2 mice. The M5076 sarcoma, the B16 melanoma and its F10 subline are maintained in C57B1/6 mice and the colon sarcinoma 26 is maintained in BALB/c mice. The leukemias and the M5076 sarcoma are serially transplanted i.p. as ascites cell suspensions while the B16 melanoma lines and the colon carcinoma 26 are serially transplanted as s.c. solid tumors.
# For therapeutic trials, tumors are aseptically removed from donor mice and prepared as suspensions for implantation ip into test animals. The test animals for the colon carcinoma 26 are female BALB/c mice (20-25 gm). The test animals for the other tumor models are syngeneic female F1 hybrid B6D2F1 mice (C57B1/6 x DBA/2). The inoculum level varies with the type of tumor: P388 leukemia is inoculated at 10^6 cells per mouse, L1210 leukemia at 10^5 or 10^6 cells per mouse, M5076 sarcoma at 5×10^6 cells per mouse. For implantation of the B16 melanoma lines and the colon carcinoma 26, s.c. tumors from donor mice are minced and homogenized in loose fitting teflon glass homogenizer to give a tumor brei. The inoculum levels are 0.5 ml of a 10 percent (w:v) brei of the B16 melanoma lines and 0.5 ml of a 5 percent (w:v) brei of colon carcinoma 26. After tumor inoculation, mice randomized to treatment groups comprised of 6-8 mice each. In each experiment, there are three groups of untreated control mice. Drugs are dissolved or suspended in appropriate aqueous vehicles and given by a variety of routes and schedules of administration over a range of dose levels. Animals are housed in shoebox cages and are monitored daily for mortality for 30 (L1210), 45 (P388) or 60 (B16, M5076, colon 26) days.
# P388/Doxorubicin = assay: ip P388/Doxorubicin multidrug resistant subline in mice; settings: for ILS / NCK (net tumor cell kill): P388/Doxorubicin, ip, Days 1 and 5; for sensitivity / resistance of subline: P388/doxorubicin in mice
# Experimental: as §4
# (§5) For the leukemias, these tumors are maintained in DBA/2 mice. […] The leukemias and the M5076 sarcoma are serially transplanted i.p. as ascites cell suspensions while the B16 melanoma lines and the colon carcinoma 26 are serially transplanted as s.c. solid tumors.
# (§6) For therapeutic trials, tumors are aseptically removed from donor mice and prepared as suspensions for implantation ip into test animals. […] The test animals for the other tumor models are syngeneic female F1 hybrid B6D2F1 mice (C57B1/6 x DBA/2). The inoculum level varies with the type of tumor: P388 leukemia is inoculated at 10^6 cells per mouse, L1210 leukemia at 10^5 or 10^6 cells per mouse, M5076 sarcoma at 5×10^6 cells per mouse. […] After tumor inoculation, mice randomized to treatment groups comprised of 6-8 mice each. In each experiment, there are three groups of untreated control mice. Drugs are dissolved or suspended in appropriate aqueous vehicles and given by a variety of routes and schedules of administration over a range of dose levels. Animals are housed in shoebox cages and are monitored daily for mortality for 30 (L1210), 45 (P388) or 60 (B16, M5076, colon 26) days.
# P388/Mitoxantrone = assay: ip P388/Mitoxantrone multidrug resistant subline in mice; settings: for ILS / NCK (net tumor cell kill): P388/Mitoxantrone, ip, Days 1 and 5
# Experimental: as §4, §5, §6
# iv L1210 leukemia = settings: iv L1210 (10^6 cells)
# Description: Animals were inoculated iv with 10^6 cells. Increase in lifespan (ILS) is based on median survival time of groups of 6 mice relative to untreated controls.
# The protocols utilized for the evaluation of the antitumor activity of Formula (I) compounds are well established and widely utilized by those skilled in the art of assessing the activity of drugs in preclinical tumor models. These studies generally follow the protocols established by the National Cancer Institute as described by Geran et al., Cancer Chemotherapy Reports, Part 3, Vol. 3, 1-103, 1972.
# Tumors used in these studies P388 leukemia, L1210 leukemia and Lewis lung carcinoma--are maintained by serial transplantation in syngeneic strains of mice, DBA/2 for the leukemias and C57B1/6 for Lewis lung carcinoma. The leukemias are serially transplanted i.p. as ascites cell suspensions while the Lewis lung carcinoma is serially transplanted as a s.c. solid tumor.
# For therapeutic trials, tumors were aseptically removed from donor mice and prepared as suspensions for implantation into test animals which for each tumor are syngeneic female F1 hybrid B6D2F1 mice (C57B1/6×DBA/2). The inoculum level varies with the type of tumor: P388 leukemia is inoculated at 10^6 cells per mouse, L1210 leukemia at 10^5 or 10^6 cells per mouse, and Lewis lung carcinoma at 0.25 ml of a 10 percent (w:v) brei. […] After tumor inoculation, mice are randomized to treatment groups of 6 to 8 mice each. In each experiment, there are three groups of untreated control mice.
# Drugs are dissolved or suspended in appropriate aqueous vehicles and given i.p. or i.v. on various treatment schedules over a range of dosage levels. Animals are housed in shoebox cages and monitored daily for mortality for 30 (L1210), 45 (P388) or 60 (Lewis lung) days.
# [2] = ip P388 (10^6 cells), 29 mg/kg, Days 1 & 5
smiles,measurement,setting,value
"CCOCc1c(O)ccc2nc3c(cc12)Cn1c-3cc2c(c1=O)COC(=O)[C@]2(O)CC [10S, (20 S) 9-Ethoxymethyl-10-hydroxycamptothecin]",IC50,L1210 leukemia cells,48 nM
same,MTD,[1],25 mg/kg
same,In Vivo Antitumor Activity ILS (increase in lifespan),ip L1210 leukemia,131%
"CC[C@@]1(O)C(=O)OCc2c1cc1n(c2=O)Cc2cc3c(CN4CCOCC4)cccc3nc2-1 [18S, (20S) 9-Morpholinomethylcamptothecin]",IC50,L1210 leukemia cells,690 nM
same,MTD,[1],13 mg/kg
same,In Vivo Antitumor Activity ILS (increase in lifespan),ip L1210 leukemia,144%
"CC[C@@]1(O)C(=O)OCc2c1cc1n(c2=O)Cc2cc3c(COCCN(C)C)c(O)ccc3nc2-1 [13S, (20 S) 9-N,N-Dimethylaminoethyloxymethyl-10-hydroxycamptothecin Hydrochloride Salt]",MTD,[1],42 mg/kg
same,In Vivo Antitumor Activity ILS (increase in lifespan),ip L1210 leukemia,188%
"CC[C@@]1(O)C(=O)OCc2c1cc1n(c2=O)Cc2cc3c(C=O)c(O)ccc3nc2-1 [2S, (20 S) 9-Formyl-10-hydroxycamptothecin]",IC50,L1210 leukemia cells,260 nM
same,MTD,[1],42 mg/kg
same,In Vivo Antitumor Activity ILS (increase in lifespan),ip L1210 leukemia,75%
CC[C@@]1(O)C(=O)OCc2c1cc1n(c2=O)Cc2cc3c(CN4CCOCC4)c(O)ccc3nc2-1 [5S],IC50,L1210 leukemia cells,370 nM
same,MTD,[1],100 mg/kg
same,In Vivo Antitumor Activity ILS (increase in lifespan),ip L1210 leukemia,83%
"CCC1(O)C(=O)OCc2c1cc1n(c2=O)Cc2cc3c(CN(C)C)c(O)ccc3nc2-1 (racemic) [Compound No. 1RS, (20 R,S)-9-Dimethylaminomethyl-10-hydroxycamptothecin Acetate Salt]",ILS,"ip P388 leukemia; ip P388 (10^6 cells), 3.6 mg/kg, Days 1 & 5",30%
same,ILS,"ip P388 leukemia; ip P388 (10^6 cells), 7.2 mg/kg, Days 1 & 5",80%
same,ILS,"ip P388 leukemia; ip P388 (10^6 cells), 14 mg/kg, Days 1 & 5",135%
same,ILS,ip P388 leukemia; [2],165%
same,Long-term Survivors (tumor-free on Day 45),ip P388 leukemia; [2],1/6
CC[C@@]1(O)C(=O)OCc2c1cc1n(c2=O)Cc2cc3c(CN(C)c4ccccc4)c(O)ccc3nc2-1 [9S],IC50,L1210 leukemia cells,69 nM
same,MTD,[1],42 mg/kg
same,In Vivo Antitumor Activity ILS (increase in lifespan),ip L1210 leukemia,112%
CO[C@@]12[C@H](COC(N)=O)C3=C(C(=O)C(C)=C(N)C3=O)N1C[C@@H]1N[C@@H]12 [Mitomycin C],ILS,"ip P388 leukemia; P388, 1.0 mg/kg, Days 1 and 5",83%
same,NCK (net tumor cell kill),"ip P388 leukemia; P388, 1.0 mg/kg, Days 1 and 5",1.7 log
same,ILS,"ip P388 leukemia; P388, 1.6 mg/kg, Days 1 and 5",106%
same,NCK (net tumor cell kill),"ip P388 leukemia; P388, 1.6 mg/kg, Days 1 and 5",2.6 log
same,ILS,"ip P388 leukemia; P388, 2.7 mg/kg, Days 1 and 5",128%
same,NCK (net tumor cell kill),"ip P388 leukemia; P388, 2.7 mg/kg, Days 1 and 5",3.5 log
same,ILS,"ip P388 leukemia; P388, 4.5 mg/kg, Days 1 and 5",156%
same,NCK (net tumor cell kill),"ip P388 leukemia; P388, 4.5 mg/kg, Days 1 and 5",4.6 log
same,ILS,"ip P388 leukemia; P388, 7.5 mg/kg, Days 1 and 5",178%
same,NCK (net tumor cell kill),"ip P388 leukemia; P388, 7.5 mg/kg, Days 1 and 5",5.5 log
same,ILS,P388/Doxorubicin; 1.0 mg/kg,29%
same,NCK (net tumor cell kill),P388/Doxorubicin; 1.0 mg/kg,0 log
same,ILS,P388/Doxorubicin; 1.6 mg/kg,48%
same,NCK (net tumor cell kill),P388/Doxorubicin; 1.6 mg/kg,0.3 log
same,ILS,P388/Doxorubicin; 2.7 mg/kg,52%
same,NCK (net tumor cell kill),P388/Doxorubicin; 2.7 mg/kg,0.5 log
same,ILS,P388/Doxorubicin; 4.5 mg/kg,62%
same,NCK (net tumor cell kill),P388/Doxorubicin; 4.5 mg/kg,1.0 log
same,ILS,P388/Doxorubicin; 7.5 mg/kg,52%
same,NCK (net tumor cell kill),P388/Doxorubicin; 7.5 mg/kg,0.5 log
same,sensitivity / resistance of subline,P388/Doxorubicin,resistant
same,ILS,P388/Mitoxantrone; 1.0 mg/kg,14%
same,NCK (net tumor cell kill),P388/Mitoxantrone; 1.0 mg/kg,0 log
same,ILS,P388/Mitoxantrone; 1.6 mg/kg,29%
same,NCK (net tumor cell kill),P388/Mitoxantrone; 1.6 mg/kg,0 log
same,ILS,P388/Mitoxantrone; 2.7 mg/kg,54%
same,NCK (net tumor cell kill),P388/Mitoxantrone; 2.7 mg/kg,1.8 log
same,ILS,P388/Mitoxantrone; 4.5 mg/kg,136%
same,NCK (net tumor cell kill),P388/Mitoxantrone; 4.5 mg/kg,6.5 log
same,ILS,P388/Mitoxantrone; 7.5 mg/kg,104%
same,NCK (net tumor cell kill),P388/Mitoxantrone; 7.5 mg/kg,5.5 log
CC[C@@]1(O)C(=O)OCc2c1cc1n(c2=O)Cc2cc3c(CNC4CCCCC4)c(O)ccc3nc2-1 [11S],IC50,L1210 leukemia cells,56 nM
same,MTD,[1],25 mg/kg
same,In Vivo Antitumor Activity ILS (increase in lifespan),ip L1210 leukemia,> 200%
COc1cccc2c1C(=O)c1c(O)c3c(c(O)c1C2=O)C[C@@](O)(C(=O)CO)C[C@@H]3O[C@H]1C[C@H](N)[C@H](O)[C@H](C)O1 [Doxorubicin],ILS,"ip P388 leukemia; P388, 1.2 mg/kg, Days 1 and 5",117%
same,NCK (net tumor cell kill),"ip P388 leukemia; P388, 1.2 mg/kg, Days 1 and 5",3.0 log
same,ILS,"ip P388 leukemia; P388, 1.9 mg/kg, Days 1 and 5",167%
same,NCK (net tumor cell kill),"ip P388 leukemia; P388, 1.9 mg/kg, Days 1 and 5",5.1 log
same,ILS,"ip P388 leukemia; P388, 3.2 mg/kg, Days 1 and 5",172%
same,NCK (net tumor cell kill),"ip P388 leukemia; P388, 3.2 mg/kg, Days 1 and 5",5.3 log
same,ILS,"ip P388 leukemia; P388, 5.4 mg/kg, Days 1 and 5",156%
same,NCK (net tumor cell kill),"ip P388 leukemia; P388, 5.4 mg/kg, Days 1 and 5",4.6 log
same,ILS,"ip P388 leukemia; P388, 9 mg/kg, Days 1 and 5",233%
same,NCK (net tumor cell kill),"ip P388 leukemia; P388, 9 mg/kg, Days 1 and 5",6.5 log
same,ILS,P388/Doxorubicin; 1.2 mg/kg,19%
same,NCK (net tumor cell kill),P388/Doxorubicin; 1.2 mg/kg,0 log
same,ILS,P388/Doxorubicin; 1.9 mg/kg,24%
same,NCK (net tumor cell kill),P388/Doxorubicin; 1.9 mg/kg,0 log
same,ILS,P388/Doxorubicin; 3.2 mg/kg,24%
same,NCK (net tumor cell kill),P388/Doxorubicin; 3.2 mg/kg,0 log
same,ILS,P388/Doxorubicin; 5.4 mg/kg,19%
same,NCK (net tumor cell kill),P388/Doxorubicin; 5.4 mg/kg,0 log
same,ILS,P388/Doxorubicin; 9 mg/kg,14%
same,NCK (net tumor cell kill),P388/Doxorubicin; 9 mg/kg,0 log
same,sensitivity / resistance of subline,P388/Doxorubicin,expected resistance
same,ILS,P388/Mitoxantrone; 1.2 mg/kg,0%
same,NCK (net tumor cell kill),P388/Mitoxantrone; 1.2 mg/kg,0 log
same,ILS,P388/Mitoxantrone; 1.9 mg/kg,0%
same,NCK (net tumor cell kill),P388/Mitoxantrone; 1.9 mg/kg,0 log
same,ILS,P388/Mitoxantrone; 3.2 mg/kg,0%
same,NCK (net tumor cell kill),P388/Mitoxantrone; 3.2 mg/kg,0 log
same,ILS,P388/Mitoxantrone; 5.4 mg/kg,4%
same,NCK (net tumor cell kill),P388/Mitoxantrone; 5.4 mg/kg,0 log
same,ILS,P388/Mitoxantrone; 9 mg/kg,7%
same,NCK (net tumor cell kill),P388/Mitoxantrone; 9 mg/kg,0 log
same,sensitivity / resistance of subline,P388/Mitoxantrone; P388/mitoxantrone in mice,expected resistance
"CC[C@@]1(O)C(=O)OCc2c1cc1n(c2=O)Cc2cc3c(CNCCN(C)C)c(O)ccc3nc2-1 [12S, (20 S) 9-N,N-Dimethylaminoethylaminomethyl-10-hydroxycamptothecin Dihydrochloride Salt]",IC50,L1210 leukemia cells,49 nM
same,MTD,[1],> 42 mg/kg
same,In Vivo Antitumor Activity ILS (increase in lifespan),ip L1210 leukemia,94%
CC[C@@]1(O)C(=O)OCc2c1cc1n(c2=O)Cc2cc3c(CN4CCC(N5CCCCC5)CC4)c(O)ccc3nc2-1 [7S],IC50,L1210 leukemia cells,270 nM
same,MTD,[1],> 42 mg/kg
same,In Vivo Antitumor Activity ILS (increase in lifespan),ip L1210 leukemia,44%
"CC[C@@]1(O)C(=O)OCc2c1cc1n(c2=O)Cc2cc3cc(CN)ccc3nc2-1 [20S, (20S) 10-Aminomethylcamptothecin Acetate salt]",IC50,L1210 leukemia cells,90 nM
same,MTD,[1],92 mg/kg
same,In Vivo Antitumor Activity ILS (increase in lifespan),ip L1210 leukemia,112%
"CC[C@@]1(O)C(=O)OCc2c1cc1n(c2=O)Cc2cc3c(CN(C)C)cccc3nc2-1 [15S, (20S) 9-Dimethylaminomethylcamptothecin]",IC50,L1210 leukemia cells,65 nM
same,MTD,[1],15 mg/kg
same,In Vivo Antitumor Activity ILS (increase in lifespan),ip L1210 leukemia,88%
"CC[C@@]1(O)C(=O)OCc2c1cc1n(c2=O)Cc2cc3c(CSCCN(C)C)c(O)ccc3nc2-1 [14S, (20 S) 9-N,N-Dimethylaminoethylthiomethyl-10-hydroxycamptothecin Hydrochloride Salt]",IC50,L1210 leukemia cells,12 nM
same,MTD,[1],42 mg/kg
same,In Vivo Antitumor Activity ILS (increase in lifespan),ip L1210 leukemia,112%
"CC[C@@]1(O)C(=O)OCc2c1cc1n(c2=O)Cc2cc3cc(C=O)ccc3nc2-1 [19S, (20S) 10-Formylcamptothecin]",IC50,L1210 leukemia cells,62 nM
CC[C@@]1(O)C(=O)OCc2c1cc1n(c2=O)Cc2cc3c(CN(C)C)c(O)ccc3nc2-1 [1S (dihydrochloride salt)],ILS,"iv L1210 leukemia; 5.4 mg/kg, Days 1 & 5, route ip in table head (iv), Dihydrochloride Salt",50%
same,ILS,"iv L1210 leukemia; 9 mg/kg, Days 1 & 5, route ip in table head (iv), Dihydrochloride Salt",83%
same,ILS,"iv L1210 leukemia; 15 mg/kg, Days 1 & 5, route ip in table head (iv in b213), Dihydrochloride Salt",133%
same,ILS,"iv L1210 leukemia; 15 mg/kg, Days 1 & 5, route ip in table head (iv in b213), listed as dihydrochloride, Dihydrochloride Salt",133%
"CC[C@@]1(O)C(=O)OCc2c1cc1n(c2=O)Cc2cc3cc(C#N)ccc3nc2-1 [16S, 10-Cyanocamptothecin]",IC50,L1210 leukemia cells,80 nM
same,MTD,[1],3 mg/kg
same,In Vivo Antitumor Activity ILS (increase in lifespan),ip L1210 leukemia,100%
CC[C@@]1(O)C(=O)OCc2c1cc1n(c2=O)Cc2cc3c(CN(C)C)c(O)ccc3nc2-1 [1S (hydrochloride salt)],ILS,"iv L1210 leukemia; 3.2 mg/kg, Days 1 & 5, route ip in table head (iv)",50%
same,ILS,"iv L1210 leukemia; 5.4 mg/kg, Days 1 & 5, route ip in table head (iv), Monohydrochloride Salt",92%
same,ILS,"iv L1210 leukemia; 9 mg/kg, Days 1 & 5, route ip in table head (iv), Monohydrochloride Salt",125%
same,ILS,"iv L1210 leukemia; 15 mg/kg, Days 1 & 5, route ip in table head (iv in b213), Monohydrochloride Salt",175%
same,ILS,"iv L1210 leukemia; 15 mg/kg, Days 1 & 5, route ip in table head (iv in b213), listed as hydrochloride, Monohydrochloride Salt",175%
same,ILS,"iv L1210 leukemia; 25 mg/kg, Days 1 & 5, route ip in table head (iv)",toxic
